Experiments:
BoNT/A LC = BoNT/A LC (Clostridium botulinum, UniProt P0DPI0); assay type: biochemical
Trypanosoma rhodesiense = conditions: in vivo, 320 mg/kg; cited from earlier work
mice = conditions: mouse, in vivo; cited from earlier work

Chain of BoNT/A LC (P0DPI0 2-448 limits assumed): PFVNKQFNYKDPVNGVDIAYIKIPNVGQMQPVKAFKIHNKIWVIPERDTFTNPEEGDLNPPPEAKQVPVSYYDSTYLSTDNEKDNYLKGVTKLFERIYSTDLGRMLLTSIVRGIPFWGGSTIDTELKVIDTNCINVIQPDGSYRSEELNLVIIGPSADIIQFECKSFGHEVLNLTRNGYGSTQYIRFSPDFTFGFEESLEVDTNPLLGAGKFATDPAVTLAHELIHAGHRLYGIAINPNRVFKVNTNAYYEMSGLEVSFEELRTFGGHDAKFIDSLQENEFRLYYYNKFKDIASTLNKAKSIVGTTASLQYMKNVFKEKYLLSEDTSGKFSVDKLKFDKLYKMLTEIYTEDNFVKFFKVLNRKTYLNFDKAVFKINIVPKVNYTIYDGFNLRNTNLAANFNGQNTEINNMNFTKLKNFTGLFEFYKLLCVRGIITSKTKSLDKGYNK

SMILES: Clc1ccc2c(NCCCCNCc3ccc(-c4ccc(-c5ccc(CNCCCCNc6ccnc7cc(Cl)ccc67)cc5)s4)cc3)ccnc2c1.O=C(O)C(F)(F)F [Compound 4c, 4,4′-[thiene-2,5-diylbis(4,1-phenylenemethyleneammoniobutane-4,1-diylimino)]bis(7-chloroquinolinium) tetra(trifluoroacetate)]
- decrease in inhibitory potency versus 4b (BoNT/A LC): approx. 1.8 fold

SMILES: Clc1ccc2c(NCCCCCNCc3ccc(-c4ccc(-c5ccc(CNCCCCCNc6ccnc7cc(Cl)ccc67)cc5)s4)cc3)ccnc2c1.O=C(O)C(F)(F)F [Compound 4d, 4,4′-[thiene-2,5-diylbis(4,1-phenylenemethyleneammoniopentane-5,1-diylimino)]bis(7-chloroquinolinium) tetra(trifluoroacetate)]
- decrease in inhibitory potency versus 4b (BoNT/A LC): approx. 3 fold

SMILES: O=C(NCCCNc1ccnc2cc(Cl)ccc12)c1cc(NC(=O)c2ccc(C(=O)Nc3cc(C(=O)NCCCNc4ccnc5cc(Cl)ccc45)cc(C4=NCCN4)c3)cc2)cc(C2=NCCN2)c1 [II, reference compound]
- increase in inhibitory potency versus I (BoNT/A LC): approx. 15 fold

SMILES: Clc1ccc2c(NCCNCc3ccc(-c4ccc(-c5ccc(CNCCNc6ccnc7cc(Cl)ccc67)cc5)s4)cc3)ccnc2c1.O=C(O)C(F)(F)F [Compound 4a, 4,4′-[Thiene-2,5-diylbis(4,1-phenylenemethyleneammonioethane-2,1-diylimino)]bis(7-chloroquinolinium) tetra(trifluoroacetate)]
- decrease in inhibitory potency versus 4b (BoNT/A LC): approx. 3 fold

SMILES: Cl.Cl.N=C(N)c1ccc(-c2ccc(-c3ccc(C(=N)N)cc3)s2)cc1 [Compound 1, 4,4′-Thiene-2,5-diyldibenzenecarboximidamide dihydrochloride]
- survival (Trypanosoma rhodesiense): 100%
- toxicity to mice (mice): non-toxic

— paper PMC3361628 (European Journal of Medicinal Chemistry, 2012)
